Columns and labels:
Experiment in all cases: stopped-flow CO2 hydration assay
Assay type in all cases: biochemical
VchCA = target: T1, VchCA (Vibrio cholerae, UniProt A0A086SLX8)
T1 construct: gene can

Can2-CA = target: T2, Can2-CA (Cryptococcus neoformans, UniProt Q3I4V7); details: read-out: Inhibition constant, Ki (μM) / β-family / Can2
T2 construct: recombinant beta-CA, produced as reported earlier; dimer in the docking model
T2 sequence (Q3I4V7 1-239): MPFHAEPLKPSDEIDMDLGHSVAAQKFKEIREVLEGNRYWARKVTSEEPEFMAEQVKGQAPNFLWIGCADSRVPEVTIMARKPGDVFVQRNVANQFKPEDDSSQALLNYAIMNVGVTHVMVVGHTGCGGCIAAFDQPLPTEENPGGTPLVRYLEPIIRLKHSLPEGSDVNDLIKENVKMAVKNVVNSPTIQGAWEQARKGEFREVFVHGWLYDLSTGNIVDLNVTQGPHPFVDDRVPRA

SspCA = target: T3, SspCA (Sulfurihydrogenibium sp. YO3AOP1, UniProt B2V8E3); details: read-out: Inhibition constant, Ki (μM) / α-family / Ssp
T3 construct: recombinant bacterial alpha-CA, produced as reported earlier
T3 sequence (B2V8E3 21-246): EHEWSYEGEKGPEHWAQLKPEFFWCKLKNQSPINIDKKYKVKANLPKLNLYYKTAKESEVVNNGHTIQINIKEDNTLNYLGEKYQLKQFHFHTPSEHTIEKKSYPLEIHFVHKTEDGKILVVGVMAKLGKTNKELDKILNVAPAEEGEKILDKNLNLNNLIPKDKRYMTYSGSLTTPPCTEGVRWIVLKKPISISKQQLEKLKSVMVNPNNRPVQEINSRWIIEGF

MgCA = target: T4, MgCA (Malassezia globosa, UniProt A8Q1N3); details: read-out: Inhibition constant, Ki (μM) / β-family / Mg
T4 construct: gene MGL_1814
T4 sequence (A8Q1N3 1-241): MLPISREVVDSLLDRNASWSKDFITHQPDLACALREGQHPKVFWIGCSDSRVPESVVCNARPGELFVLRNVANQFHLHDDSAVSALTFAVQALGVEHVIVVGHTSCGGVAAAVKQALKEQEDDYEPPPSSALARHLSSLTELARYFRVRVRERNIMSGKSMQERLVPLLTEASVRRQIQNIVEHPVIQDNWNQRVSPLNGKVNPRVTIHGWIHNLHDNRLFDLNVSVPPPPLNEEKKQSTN

hCA IX = target: T5, hCA IX (Homo sapiens, UniProt Q16790); details: read-out: Inhibition constant, Ki (μM) / α-family / CAI
T5 construct: gene CA9

T1 sequence (A0A086SLX8 1-222): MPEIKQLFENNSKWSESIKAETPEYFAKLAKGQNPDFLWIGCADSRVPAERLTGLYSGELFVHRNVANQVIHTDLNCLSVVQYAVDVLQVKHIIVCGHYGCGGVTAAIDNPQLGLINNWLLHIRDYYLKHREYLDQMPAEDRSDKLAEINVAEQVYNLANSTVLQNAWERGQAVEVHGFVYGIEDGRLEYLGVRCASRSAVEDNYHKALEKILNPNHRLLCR

In the case of `NC(=O)c1ccc[n+]([O-])c1N` [compound 5, 5], the Ki (VchCA) is reported as 2.1 µM and the Ki (Can2-CA) is reported as 1.7 µM.

With `CCc1cc(C(C)C)c(C(N)=O)c(N)[n+]1[O-]` [compound 13, 13] the Ki (VchCA) was 2.8 µM.

In the case of `CCc1cc(C(C)C)[n+]([O-])c(N)c1C(N)=O` [compound 16, 16], the Ki (SspCA) is reported as 58.5 µM.

`CCc1cc(C)[n+]([O-])c(N)c1C(N)=O` [compound 19, 19] was tested, and the Ki (SspCA) was 42.2 µM.

Compound `CC(C)c1cc(-c2ccccc2)c(C(N)=O)c(N)[n+]1[O-]` [compound 20, 20] has a Ki (MgCA) of 46.2 µM.

`CCc1cc(-c2ccccc2)c(C(N)=O)c(N)[n+]1[O-]` [compound 21, 21] was tested, and the Ki (VchCA) was 2.2 µM.

For `NC(=O)c1ncc[n+]([O-])c1N` [compound 30, 30], the Ki (MgCA) was 6.7 µM, the Ki (Can2-CA) was 1.1 µM and the Ki (hCA IX) was > 100 µM.

Compound `Cc1cnc(C(N)=O)c[n+]1[O-]` [compound 31, 31] has a Ki (Can2-CA) of 1.3 µM.
